Holding throughout (experiment): growth of human tumour cells (NCI), 48 h
Experiment [1] relates to UACC-62 melanoma.
The subject of experiment [2] is SK-MEL-2 melanoma.
In experiment [3] the test system is MDA-MB-231 breast.
Experiment [4] has as its system CAKI-1 renal.
In experiment [5] the test system is HOP-92 NSCLC.
Experiment [6] has as its system SF-295 CNS.
Experiment [7] relates to SK-MEL-5 melanoma.
In experiment [8] the test system is SN12C renal.
Experiment [9] concerns DU-145 prostate.
In experiment [10] the test system is HOP-62 NSCLC.

Molecules are shown by their SMILES.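 Growth conditions: 96-well plates. Treatment: test compound, 48 hours, 5 concentrations. Analysis: linear interpolation between bracketing concentrations; unreached endpoints set to highest concentration. GI50 = concentration required for 50% inhibition of growth. TGI: concentration producing complete growth inhibition.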 A value given as a limit tells only on which side of the number the result lay.

`Cc1cc(Cc2c(F)c(F)c(Cc3cc(C)no3)c(F)c2F)on1`: the TGI is > 100 µM in experiment [1]; > 100 µM in experiment [2]; > 100 µM in [3]; 24.6 µM in experiment [4]; > 100 µM in experiment [5]; > 100 µM in experiment [6]. Also, the TGI is > 100 µM in [7], > 100 µM in experiment [8], > 100 µM in [9] and 62.8 µM in [10].
As to `COC(=O)C1=C(O)C(C(=O)OC)[C@@]2(O)[C@@H](C(=O)OC)C(c3ccc(OC(=O)/C(=C/c4ccc(Cl)cc4)c4ccc(Cl)cc4)cc3)C[C@@H]1[C@@H]2C(=O)OC` (stereo not given in full), the TGI was 24 µM in experiment [1]; 38.2 µM in [2]; 82.8 µM in [3]; 85.9 µM in experiment [4]; > 100 µM in experiment [5]; > 100 µM in experiment [6]. The TGI in experiment [7], in experiment [8], in experiment [9] and in [10] was > 100 µM each time.
For the compound `CCOC(=O)c1nc2c3c(ncn2n1)Oc1c(c(-c2ccccc2)nn1-c1ccccc1)C3c1ccc(Cl)cc1` (stereo not given), the TGI in experiment [1], in experiment [2], in [3], in [4], in experiment [5] and in [6] was > 100 µM in each case. Further, the TGI in experiment [7], in experiment [8], in experiment [9] and in [10] was > 100 µM throughout.
With `N#Cc1c(NC(=O)c2ccccc2)sc2c1CCC(=O)C2`, the GI50 was 0.404 µM in [1]; 2.45 µM in experiment [2]; 1.99 µM in experiment [3]; 0.38 µM in experiment [4]; 0.821 µM in [5]; 1.96 µM in experiment [6]. The GI50 in experiment [7] was 1.65 µM; in experiment [8], 1.16 µM; in experiment [9] it was 2.98 µM; in [10] it was 2.55 µM. Moreover, the TGI came to 1.93 µM in experiment [1]; 8.65 µM in experiment [2]; 6.28 µM in experiment [3]; 1.86 µM in experiment [4]; 2.72 µM in [5]; 6.83 µM in experiment [6]. Further, the TGI was 3.22 µM in experiment [7], 7.51 µM in experiment [8], > 100 µM in experiment [9] and > 100 µM in [10].
As to `COC(=O)c1sc(=S)sc1SCc1ccccc1CSc1sc(=S)sc1C(=O)OC`, the TGI in experiment [1], in experiment [2], in experiment [3], in experiment [4], in experiment [5] and in experiment [6] was > 100 µM throughout. The TGI in experiment [7], in [8], in experiment [9] and in experiment [10] was > 100 µM throughout.
Regarding `Cc1cc2ccccc2n1CC(=O)NCC(C)C`, the TGI in experiment [1], in experiment [2], in experiment [3], in [4], in experiment [5] and in experiment [6] was > 100 µM each time. The TGI in experiment [7], in experiment [8], in experiment [9] and in [10] was > 100 µM each time.
Turning to `COC(=O)[C@H](C)N1C(=O)N[C@@H](C(C)C)C1=O`, the TGI in experiment [1], in experiment [2], in experiment [3], in [4], in experiment [5] and in experiment [6] was > 100 µM in each case. For the same compound, the TGI in [7], in experiment [8], in [9] and in experiment [10] was > 100 µM each time.
Turning to `C/C(O)=C(\C=N\C(N)=S)C(=O)Nc1ccccc1C`, the TGI in experiment [1], in experiment [2], in experiment [3], in experiment [4], in experiment [5] and in experiment [6] was > 100 µM each time. Also, the TGI in experiment [7], in experiment [8], in [9] and in experiment [10] was > 100 µM each time.
Regarding `CN(C)CCOC(=O)COc1ccc(Cl)cc1`, the TGI in experiment [1], in [2], in experiment [3], in experiment [4], in [5] and in [6] was > 100 µM in each case. The TGI in experiment [7], in experiment [8], in [9] and in experiment [10] was > 100 µM each time.
Consider `CCOC(=O)c1ccc2nc(NC(=O)COC(=O)CSc3nc(C)cc(C)n3)sc2c1`, for which the TGI in experiment [1], in [2], in [3], in [4], in experiment [5] and in [6] was > 100 µM in each case. Also, the TGI in experiment [7] was > 100 µM; in experiment [8] it was > 100 µM; in [9], > 100 µM; in [10] it was 50.5 µM.
For `CCCCCc1cc2c(cc1O)CC[C@@H]1[C@@H]2CC[C@]2(C)[C@@H](O)CC[C@@H]12`, the TGI is 35.4 µM in experiment [1]; 43.5 µM in experiment [2]; 33.3 µM in experiment [3]; 40.4 µM in experiment [4]; 32.3 µM in experiment [5]; 28.2 µM in experiment [6]. The TGI in experiment [7] worked out at 34.7 µM; in [8], 29.8 µM; in experiment [9], 31.4 µM; in [10], 41.7 µM.
Take `O=C(/C=C/c1ccc(-c2ccccc2[N+](=O)[O-])o1)NCc1ccc(C(=O)NCCc2ccccc2)cc1`: the TGI in experiment [1], in [2], in experiment [3], in experiment [4], in experiment [5] and in experiment [6] was > 100 µM throughout. The TGI in experiment [7], in experiment [8], in experiment [9] and in experiment [10] was > 100 µM throughout.
On to `C#CCNC(Cc1cnc[nH]1)C(=O)O` (stereo not given), for which the TGI in experiment [1], in experiment [2], in experiment [3], in experiment [4], in [5] and in [6] was > 100 µM throughout. Moreover, the TGI in experiment [7], in [8], in [9] and in experiment [10] was > 100 µM throughout.

The values above are taken from PubChem BioAssay (NCI).
